The text below walks through data of patent US20260200897A1, “4-((5-(3-(4-(PYRIDIN-2-YL)CYCLOPENTYL)-1H-PYRAZOL-3-YL)AMINO)-BENZENESULFONAMIDE DERIVATIVES AND SIMILAR COMPOUNDS AS CDK INHIBITORS FOR THE TREATMENT OF CANCER” (BeOne Medicines I GmbH, priority 2023, published 2026).

Test [1] deals with CDK2/Cyclin E1 (Homo sapiens, UniProt P24941). The test can be described thus: CDK2/Cyclin E1 TR-FRET biochemical assay, 1 mM ATP. The conditions noted are these: 0.15 μM Rb (Ser780)-biotin substrate, 90 min reaction, Table 2.
Test [2] deals with CDK1/Cyclin B1 (Homo sapiens, UniProt P06493). The test can be described thus: CDK1/Cyclin B1 TR-FRET biochemical assay, 1 mM ATP. The conditions noted are these: 0.15 μM Rb (Ser780)-biotin substrate, 90 min reaction, Table 2.
CDK1/Cyclin B1, sequence (P06493 whole entry): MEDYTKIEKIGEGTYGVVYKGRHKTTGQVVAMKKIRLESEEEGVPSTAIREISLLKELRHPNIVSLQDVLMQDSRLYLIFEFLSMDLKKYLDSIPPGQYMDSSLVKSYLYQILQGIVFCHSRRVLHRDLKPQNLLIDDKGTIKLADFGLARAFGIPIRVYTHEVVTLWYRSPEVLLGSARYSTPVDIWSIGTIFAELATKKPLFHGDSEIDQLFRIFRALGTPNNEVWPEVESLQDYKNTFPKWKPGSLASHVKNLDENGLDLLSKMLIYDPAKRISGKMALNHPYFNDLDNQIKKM
CDK1/Cyclin B1, sequence (P14635 whole entry partner): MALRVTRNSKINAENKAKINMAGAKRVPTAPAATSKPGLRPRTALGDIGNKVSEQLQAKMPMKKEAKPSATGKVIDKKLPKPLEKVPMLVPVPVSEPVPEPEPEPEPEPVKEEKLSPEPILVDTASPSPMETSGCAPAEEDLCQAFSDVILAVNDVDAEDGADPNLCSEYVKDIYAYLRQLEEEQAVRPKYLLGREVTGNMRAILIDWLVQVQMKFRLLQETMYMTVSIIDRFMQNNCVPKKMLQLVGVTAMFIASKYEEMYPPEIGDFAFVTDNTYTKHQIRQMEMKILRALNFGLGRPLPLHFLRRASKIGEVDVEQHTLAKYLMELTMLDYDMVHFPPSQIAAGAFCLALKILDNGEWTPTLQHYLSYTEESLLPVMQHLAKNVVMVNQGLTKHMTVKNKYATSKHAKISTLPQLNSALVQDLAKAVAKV

As to `Cc1cccc(C2CCC(c3cc(Nc4cc5c(cc4F)S(=O)(=O)NC5)n[nH]3)C2)n1` (centres unmarked) [Example 12, 6-fluoro-5-((5-(3-(6-methylpyridin-2-yl)cyclopentyl)-1H-pyrazol-3-yl)amino)-2,3-dihydrobenzo[d]isothiazole 1,1-dioxide], the IC50 was 3990 nM in test [1] and > 10000 nM in test [2].
Taken in the same sequence, the figures for `CC(C)(C)c1ccc(C2CCC(c3cc(Nc4ccc5c(c4F)CS(=O)(=O)N5)n[nH]3)C2)nc1` (centres unmarked) [Example 156, 5-((5-(3-(5-(tert-butyl)pyridin-2-yl)cyclopentyl)-1H-pyrazol-3-yl)amino)-4-fluoro-1,3-dihydrobenzo[c]isothiazole 2,2-dioxide] were 2020 nM and > 10000 nM.
Taken in the same sequence, the figures for `CC(C)(C)c1ccnc(C2CCC(c3cc(Nc4ccc(S(N)(=O)=O)cc4F)n[nH]3)C2)n1` (centres unmarked) [Example 4, 4-((5-(3-(4-(tert-butyl)pyrimidin-2-yl)cyclopentyl)-1H-pyrazol-3-yl)amino)-3-fluorobenzenesulfonamide] were 7.1 nM and 848 nM.
The corresponding values for `CC(C)c1ccnc(C2CCC(c3cc(Nc4ccc5c(c4F)CNS5(=O)=O)n[nH]3)C2)c1` (centres unmarked) [Example 122, 4-fluoro-5-((5-(3-(4-isopropylpyridin-2-yl)cyclopentyl)-1H-pyrazol-3-yl)amino)-2,3-dihydrobenzo[d]isothiazole 1,1-dioxide] are 72 nM and > 10000 nM.
On to `CC(C)(C)c1ccnc(C2CCC(c3cc(Nc4cc5c(cc4F)S(=O)(=O)NC5)n[nH]3)C2)c1` (centres unmarked) [Example 13, 5-((5-(3-(4-(tert-butyl)pyridin-2-yl)cyclopentyl)-1H-pyrazol-3-yl)amino)-6-fluoro-2,3-dihydrobenzo[d]isothiazole 1,1-dioxide], for which the concentration for half-maximal inhibition (IC50) was 462 nM in test [1] and > 10000 nM in test [2].
Taken in the same sequence, the figures for `CC(C)(C)c1ccnc(C2CCC(c3cc(Nc4cc5c(cc4F)S(=O)(=O)NC5)n[nH]3)C2)n1` (centres unmarked) [Example 15, 5-((5-(3-(4-(tert-butyl)pyrimidin-2-yl)cyclopentyl)-1H-pyrazol-3-yl)amino)-6-fluoro-2,3-dihydrobenzo[d]isothiazole 1,1-dioxide] were 3.7 nM and 1060 nM.
The corresponding values for `CC(C)(C)c1ncccc1O[C@@H]1CC[C@H](c2cc(Nc3ccc4c(c3)CS(=O)(=O)N4)n[nH]2)C1` (relative stereo) [Example 139, cis-5-((5-(3-((2-(tert-butyl)pyridin-3-yl)oxy)cyclopentyl)-1H-pyrazol-3-yl)amino)-1,3-dihydrobenzo[c]isothiazole 2,2-dioxide] are 54 nM and 5710 nM.
In the case of `CC(C)(C)c1cccc(C2CCC(c3cc(Nc4ccc5c(c4F)CNS5(=O)=O)[nH]n3)C2)n1` (centres unmarked) [Example 118, 5-((3-(3-(6-(tert-butyl)pyridin-2-yl)cyclopentyl)-1H-pyrazol-5-yl)amino)-4-fluoro-2,3-dihydrobenzo[d]isothiazole 1,1-dioxide], the values for the IC50 in test [1] and in test [2] were 725 nM and > 10000 nM, respectively.
The corresponding values for `CC(C)(C)c1cnc(C2CCC(c3cc(Nc4ccc5c(c4)CN=S5(C)=O)n[nH]3)C2)o1` (single isomer, unassigned) [Example 169d, 5-((5-(3-(5-(tert-butyl)oxazol-2-yl)cyclopentyl)-1H-pyrazol-3-yl)amino)-1-methyl-3H-1λ^4-benzo[d]isothiazole 1-oxide] are 173 nM and > 10000 nM.
The corresponding values for `Cc1cc(C(C)(C)C)cc(C2CCC(c3cc(Nc4ccc5c(c4F)CS(=O)(=O)C5)n[nH]3)C2)n1` (centres unmarked) [Example 175, 5-((5-(3-(4-(tert-butyl)-6-methylpyridin-2-yl)cyclopentyl)-1H-pyrazol-3-yl)amino)-4-fluoro-1,3-dihydrobenzo[c]thiophene 2,2-dioxide] are 439 nM and > 10000 nM.
Take `Cn1ncc(C(C)(C)C)c1O[C@@H]1CC[C@H](c2cc(Nc3ccc4c(c3F)CNS4(=O)=O)n[nH]2)C1` (relative stereo) [Example 72, cis-5-((5-(3-((4-(tert-butyl)-1-methyl-1H-pyrazol-5-yl)oxy)cyclopentyl)-1H-pyrazol-3-yl)amino)-4-fluoro-2,3-dihydrobenzo[d]isothiazole 1,1-dioxide]: the IC50 in test [1] is 5910 nM; in test [2] it was > 10000 nM.
As to `CC(C)(C)c1cccc(C2CCC(c3cc(Nc4ccc5c(c4F)CNS5(=O)=O)n[nH]3)C2)c1` (centres unmarked) [Example 132, 5-((5-(3-(3-(tert-butyl)phenyl)cyclopentyl)-1H-pyrazol-3-yl)amino)-4-fluoro-2,3-dihydrobenzo[d]isothiazole 1,1-dioxide], the half-inhibitory concentration (IC50) in test [1] and in test [2] was > 10000 nM throughout.
As for `CC(C)(C)c1cnc([C@@H]2CC[C@H](c3cc(Nc4ccc5c(c4F)CS(=O)(=O)N5)n[nH]3)C2)s1` (relative stereo) [Example 149, cis-5-((5-(3-(5-(tert-butyl)thiazol-2-yl)cyclopentyl)-1H-pyrazol-3-yl)amino)-4-fluoro-1,3-dihydrobenzo[c]isothiazole 2,2-dioxide], the IC50 in test [1] was 6120 nM; in test [2], > 10000 nM.
Taken in the same sequence, the figures for `CCOC(=O)c1nc(C2CCC(c3cc(Nc4ccc5c(c4F)CNS5(=O)=O)n[nH]3)C2)oc1C(C)(C)C` (centres unmarked) [Example 114, ethyl 5-(tert-butyl)-2-(3-(3-((4-fluoro-1,1-dioxido-2,3-dihydrobenzo[d]isothiazol-5-yl)amino)-1H-pyrazol-5-yl)cyclopentyl)oxazole-4-carboxylate] were 429 nM and > 10000 nM.
Taken in the same sequence, the figures for `CC(C)(C)c1nnc([C@@H]2CC[C@H](c3cc(Nc4ccc5c(c4F)CNS5(=O)=O)n[nH]3)C2)o1` (relative stereo) [Example 96, cis-5-((5-(3-(5-(tert-butyl)-1,3,4-oxadiazol-2-yl)cyclopentyl)-1H-pyrazol-3-yl)amino)-4-fluoro-2,3-dihydrobenzo[d]isothiazole 1,1-dioxide] were 314 nM and > 10000 nM.
The corresponding values for `Cc1[nH]nc(C(C)(C)C)c1O[C@@H]1CC[C@H](c2cc(Nc3ccc4c(c3F)CNS4(=O)=O)n[nH]2)C1` (relative stereo) [Example 80, cis-5-((5-(3-((3-(tert-butyl)-5-methyl-1H-pyrazol-4-yl)oxy)cyclopentyl)-1H-pyrazol-3-yl)amino)-4-fluoro-2,3-dihydrobenzo[d]isothiazole 1,1-dioxide] are 1120 nM and > 10000 nM.
As for `CC(C)(C)c1cnc(C2CCC(c3cc(Nc4ccc(S(N)(=O)=O)cc4F)n[nH]3)C2)o1` (single isomer, unassigned) [Example 6d, 4-((5-(3-(5-(tert-butyl)oxazol-2-yl)cyclopentyl)-1H-pyrazol-3-yl)amino)-3-fluorobenzenesulfonamide], the IC50 in test [1] was 503 nM; in test [2], > 10000 nM.
Taken in the same sequence, the figures for `CC(C)(C)C1CCC(C2CCC(c3cc(Nc4ccc5c(c4F)CNS5(=O)=O)n[nH]3)C2)O1` (centres unmarked) [Example 104, 5-((5-(3-(5-(tert-butyl)tetrahydrofuran-2-yl)cyclopentyl)-1H-pyrazol-3-yl)amino)-4-fluoro-2,3-dihydrobenzo[d]isothiazole 1,1-dioxide] were 1790 nM and > 10000 nM.
In the case of `CC(C)c1cnc(C2CCC(c3cc(Nc4ccc5c(c4)CN=S5(C)=O)n[nH]3)C2)o1` (centres unmarked) [Example 168, 5-((5-(3-(5-isopropyloxazol-2-yl)cyclopentyl)-1H-pyrazol-3-yl)amino)-1-methyl-3H-1λ^4-benzo[d]isothiazole 1-oxide], the IC50 in test [1] was found to be 15 nM; in test [2], 2350 nM.
Taken in the same sequence, the figures for `CC(C)(C)c1cnc(C2CCC(c3cc(Nc4ccc5c(c4F)CS(=O)(=O)C5)n[nH]3)C2)o1` (centres unmarked) [Example 173, 5-((5-(3-(5-(tert-butyl)oxazol-2-yl)cyclopentyl)-1H-pyrazol-3-yl)amino)-4-fluoro-1,3-dihydrobenzo[c]thiophene 2,2-dioxide] were 2.8 nM and 198 nM.
Regarding `CC(C)(C)c1csnc1O[C@@H]1CC[C@H](c2cc(Nc3ccc4c(c3F)CNS4(=O)=O)n[nH]2)C1` (relative stereo) [Example 56, cis-5-((5-(3-((4-(tert-butyl)isothiazol-3-yl)oxy)cyclopentyl)-1H-pyrazol-3-yl)amino)-4-fluoro-2,3-dihydrobenzo[d]isothiazole 1,1-dioxide], the IC50 worked out at 4.3 nM in test [1] and 3500 nM in test [2].
Taken in the same sequence, the figures for `CC(C)c1ccnc(C2CCC(c3cc(Nc4ccc5c(c4F)CS(=O)(=O)N5)n[nH]3)C2)n1` (centres unmarked) [Example 165, 4-fluoro-5-((5-(3-(4-isopropylpyrimidin-2-yl)cyclopentyl)-1H-pyrazol-3-yl)amino)-1,3-dihydrobenzo[c]isothiazole 2,2-dioxide] were 1.7 nM and 126 nM.
With `CC(C)(C)c1nnc([C@H]2CC[C@H](c3cc(Nc4ccc5c(c4F)CS(=O)(=O)N5)n[nH]3)C2)o1` (relative stereo) [Example 147, trans-5-((5-(3-(5-(tert-butyl)-1,3,4-oxadiazol-2-yl)cyclopentyl)-1H-pyrazol-3-yl)amino)-4-fluoro-1,3-dihydrobenzo[c]isothiazole 2,2-dioxide], the IC50 in test [1] was 851 nM; in test [2], > 10000 nM.
Take `Cc1cccc(C2CCC(c3cc(Nc4ccc5c(c4F)CNS5(=O)=O)n[nH]3)C2)n1` (centres unmarked) [Example 120, 4-fluoro-5-((5-(3-(6-methylpyridin-2-yl)cyclopentyl)-1H-pyrazol-3-yl)amino)-2,3-dihydrobenzo[d]isothiazole 1,1-dioxide]: the IC50 was 4410 nM in test [1] and > 10000 nM in test [2].
The corresponding values for `CC(C)(C)c1ccnc([C@@H]2CC[C@H](c3cc(Nc4ccc5c(c4F)CNS5(=O)=O)n[nH]3)C2)n1` (relative stereo) [Example 127, cis-5-((5-(3-(4-(tert-butyl)pyrimidin-2-yl)cyclopentyl)-1H-pyrazol-3-yl)amino)-4-fluoro-2,3-dihydrobenzo[d]isothiazole 1,1-dioxide] are 1.5 nM and 142 nM.
